The test system of experiment [1] is isolated rat aorta. Put plainly: In vitro vasorelaxation, cumulative concentration-response curves on rat aortic rings contracted with epinephrine. The experiment is classed as cell-based. Conditions: isolated rat aorta pre-treated with 1 μM epinephrine. From the text:
Male Sprague Dawley rats were anaesthetized using intraperitoneal injection of ketamine and xylazine (50 and 10 milligram per kilogram, respectively) and the thoracic aorta, the large upper portion of the descending aorta, starting at the caudal border of the chest bone, was removed thereafter, while carefully removing the paraadventetial tissue surrounding the vessel. Aortae were cut into rings of 4-5 millimeters and mounted onto the tissue path. The path buffer (Krebs-bicrbonate) was constantly gassed with carbogen and maintained at 37° C. The rings were preloaded under 2 g tension and equilibrated for 90 minutes, while refreshing the buffer every 15 minutes. After stabilization, the rings were contracted with epinephrine (1 μM). Cumulative Concentration-Response Curves (CCRC) were measured for the vasorelaxing effect induced by adding various concentrations, ranging from 10^−10 M to 10^−5 M of Pet-2, Pet-3, Pet-7, Pet-8, Pet-12, Pet-24, Pet-43, Pet-59, Pet-147, Pet-152 and Pet-154, and glyceryltrinitrate (GTN), according to the procedure described in Feelich et al., Molecular Pharmacology, 56:243-253 (1999). The vehicle, which was used for this experiment was water:ethanol:propyleneglycol at proportional ratio of 1:1:1.
The vasorelaxing effect of the thiazole-derived NO-donors according to the present invention was measured on slices of thoracic aorta of rats contracted with epinephrine, as described hereinabove.
The obtained results for Pet-2, Pet-3, Pet-7, Pet-8, Pet-12, Pet-24, Pet-43, Pet-59, Pet-147, Pet-152 and Pet-154 are presented in FIGS. 2-14, and are summarized in Table 3 below.

The test system of experiment [2] is c-GMP in slices of thoracic aorta of rats. Put plainly: Cyclic-GMP measurement in aortic rat tissue (radioimmunoassay). Type of experiment: cell-based. Conditions: for levels of cGMP as compared with GTN: isolated rat aorta, FIGS. 25, 27, 33; for cGMP Post-infusion: rat aorta, post-infusion (repeated treatment). The procedure:
GTN (10^−6 M) was added to the chamber and, 1 minute after exposure to the drug, rings (usually 3-5) were taken, wrapped with aluminum foil and immediately frozen in liquid nitrogen for storage. Control sample group was treated with the vehicle solution only. At the time of analysis, rings were thawed, blotted over a dry gauzed and weighted. A known weight of tissue was homogenized in 2 ml ice-cold modified Hank's balanced salt solution containing (in gram/liter) NaCl 8; KCl 0.4; glucose 1; KH2PO4 0.06; Na2HPO4 0.047; Phenol red 0.017 and further containing 25 mM EDTA (disodium salt). The homogenate was centrifuged at 4000 g (force units) for 10 minutes at 2-4° C. and the supernatant was thereafter transferred into fresh pre-cooled test tube containing 1 ml of acetonitrile. The tubes were vortex mixed for a few seconds and subsequently centrifuged at 4000 g for 5 minutes at 2-4° C., to remove the precipitated protein. Each supernatant was transferred into a clean test tube and evaporated to dryness under a stream of nitrogen at 55° C. The dry residue was reconstituted with 10 volumes of Tris-EDTA buffer pH 7.5 (0.05 M Tris containing 4 mM EDTA). Aliquots of 100 μl of the reconstituted solution in duplicate were used for c-GMP measurements using Amersham RIA kit, as is described in Haj-Yehia & Benet [Pharmacology, 1995, 273, 1, pp. 94-100]. Standard curves were plotted with six concentrations (0, 0.5, 1, 2, 4 and 8 pmoles of c-GMP per tube).
The NO-tolerance effect of GTN and NO-donor compounds according to the present invention was measured by following the production of c-GMP in slices of thoracic aorta of rats. Thus, the production of c-GMP was measured as described in the methods section above for the reference NO-donor compound GTN, and for the NO-donors of the present invention Pet-2, Pet-3, Pet-7, Pet-8, Pet-10, Pet-12, Pet-24, Pet-59, Pet-147, Pet-149, Pet-152, Pet-154 and Pet-155.

Experiment [3] concerns isolated rat aorta. Briefly: In vitro induction of tolerance to NO releasing compounds (vasorelaxation of pre-exposed aortic rings, incl. cross-tolerance). Type of experiment: cell-based. Conditions: rat aorta pre-treated with epinephrine and then 0.44 mM of the compound. The procedure:
Aortic rings were prepared as described hereinabove, and were exposed to 0.44 mM GTN (vehicle was water:ethanol:propyleneglycol at proportional ratio of 1:1:1) for 1 hour before CCRC construction, to thereby induce tolerance to nitroglycerine. At the end of the tolerance induction period, rings were thrice washed with the path buffer (Krebs-bicrbonate) every 15 minutes for the following hour and then CCRC for vasorelaxation on GTN-induced tolerance rings were constructed for GTN (pretreated versus untreated rings, FIG. 15), in order to verify the ability to induce and measure GTN tolerance induction in vitro
Attempted induction of tolerance to the NO-donating compounds of the present invention was performed under the same conditions as for GTN. Thus, in an exemplary experiment, rings were exposed to 0.44 mM solution of Pet-3 in the attempt to induce tolerance for Pet-3. CCRC were then measured for the vasorelaxing effect of Pet-3 on a group of rings which were pre-exposed to Pet-3 as to induce tolerance to Pet-3, and for an untreated control group. The above protocol was repeated with Pet-2, Pet-7, Pet-8, Pet-12, Pet-24, Pet-43, Pet-149 and Pet-152.
Cross-tolerance studies were conducted using the same technique described above for measuring vasorelaxation of aortic rings from rats. Two groups of aortic rings samples were pre-treated with GTN, then one group was measured for vasorelaxation by GTN and the second group for vasorelaxation by Pet-12, an exemplary NO-donor according to the present invention. For the opposite cross-tolerance studies, two groups of aortic rings samples were pre-treated with Pet-12, then one group was measured for vasorelaxation by GTN and the second group for vasorelaxation by Pet-12.

For experiment [4], the system named is anesthetized hypertensive Sprague-Dawley male rats. Put plainly: Hypotensive effects: mean arterial pressure after iv bolus in phenylephrine-treated rats. The experiment is classed as in vivo, rat. Conditions: rats pre-treated in vivo with phenylephrine; iv bolus 10-100 micrograms. From the text: These techniques were also used to detect tolerance induction by the NO-donors of the present invention and by GTN. For c-GMP levels and tolerance development, the rat's thoracic aorta was isolated after exposure to the tested compound in vivo, and measured as described above in the in vitro assays.
Mean arterial pressure (MAP) was monitored and determined during bolus infusion of Pet-2, Pet-3, Pet-7, Pet-8, Pet-12 and Pet-13. Briefly, polyethylene catheters (PE50) were inserted into the carotid artery and into the jugular vein of anesthetized hypertensive Sprague-Dawley male rats (200-300 grams). A blood pressure recorder was placed within the carotid artery. Phenylephrine (0.1 mg) was then injected and the mean arterial blood pressure (MABP) was monitored continuously until a stable baseline was reached. The hypotensive effects of intravenous (iv) bolus doses (0.1 mg of each tested compound) administered intravenously at the jugular vein in minimal volume of vehicle (0.2 ml per dose) were evaluated. Five minutes were allowed between each dose, during which the maximal decrease in MAP was recorded and a dose-response graph comparing the hypotensive effect of the compounds was constructed.

As for `Cc1nc(NC(=O)[C@@H](C)c2ccc(CC(C)C)cc2)sc1CCO[N+](=O)[O-]` (stereo in doubt) [Pet-152, 2-(4-Isobutyl-phenyl)-N-[4-methyl-5-(2-nitrooxy-ethyl)-thiazol-2-yl]-propionamide], in the experiment on isolated rat aorta [1], the “vasorelaxation effect as compared with glyceryltrinitrate (words)” value is “superior vasorelaxation effect”. The “levels of cGMP as compared with GTN” value in experiment [2] is recorded as “increased levels of cGMP”.

With `Cc1nc(C)c(CCO[N+](=O)[O-])s1` [Pet-3, 2,4-Dimethyl-5-(2-nitrooxy-ethyl)-thiazole], in the experiment with isolated rat aorta [1], the “vasorelaxation effect as compared with glyceryltrinitrate (words)” value is on record as “superior vasorelaxation effect”. Moreover, in experiment [2], the “levels of cGMP as compared with GTN” value is on record as “increased levels of cGMP” and the “cGMP Post-infusion” value was 118 ± 10 pmol/g tissue. Moreover, in the experiment with isolated rat aorta [3], the “tolerance induction after pre-treatment with the same compound” value (“tolerance induction after pre-treatment” below) is “absence of tolerance induction”.

For the compound `Cc1nc(N(C)C)sc1CCO[N+](=O)[O-]` [Pet-7, Dimethyl-[4-methyl-5-(2-nitrooxy-ethyl)-thiazol-2-yl]-amine], in the experiment with isolated rat aorta [1], the “vasorelaxation effect as compared with glyceryltrinitrate” value worked out at 10 fold and the “vasorelaxation effect as compared with glyceryltrinitrate (words)” value was “superior”. Besides, the “hypotensive / vasorelaxation effect on heightened mean arterial blood pressure” value in experiment [4] was “vasorelaxation effect”. In experiment [2], the “levels of cGMP as compared with GTN” value is “increased levels of cGMP” and the “cGMP Post-infusion” value is listed as 123 ± 12 pmol/g tissue. Moreover, in the experiment on isolated rat aorta [3], the “tolerance induction after pre-treatment” value was “absence of tolerance induction”.

Take `Cc1nc(-c2ccccc2)sc1CCO[N+](=O)[O-]` [Pet-8, 4-Methyl-5-(2-nitrooxy-ethyl)-2-phenyl-thiazole]: in the experiment on isolated rat aorta [1], the “vasorelaxation effect as compared with glyceryltrinitrate (words)” value is given as “superior vasorelaxation effect”. Further, in experiment [2], the “levels of cGMP as compared with GTN” value was “increased levels of cGMP” and the “cGMP Post-infusion” value is 136 ± 12 pmol/g tissue.

In the case of `Cc1nc(N)sc1CCO[N+](=O)[O-]` [Pet-10, 4-methyl-5-(2-nitrooxy-ethyl)-thiazole-2-ylamine], the “levels of cGMP as compared with GTN” value in experiment [2] is recorded as “increased levels of cGMP”.

For the compound `Cc1nc(CCCCc2nc(C)c(CCO[N+](=O)[O-])s2)sc1CCO[N+](=O)[O-]` [Pet-13], the “hypotensive / vasorelaxation effect on heightened mean arterial blood pressure” value in experiment [4] is given as “vasorelaxation effect”.

Regarding `CNc1cncc(-c2nc(C)c(CCO[N+](=O)[O-])s2)n1` [Pet-24, Methyl-{6-[4-methyl-5-(2-nitrooxy-ethyl)-thiazol-2-yl]-pyrazin-2-yl}-amine], in experiment [2], the “levels of cGMP as compared with GTN” value was “increased levels of cGMP” and the “cGMP Post-infusion” value turned out to be 112 ± 10 pmol/g tissue. Also, the “tolerance induction after pre-treatment” value in the experiment with isolated rat aorta [3] is given as “absence of tolerance induction”.

On to `Cc1nc(Nc2nc(C)c(CCO[N+](=O)[O-])s2)sc1CCO[N+](=O)[O-]` [Pet-43, Bis-[4-methyl-5-(2-nitrooxy-ethyl)-thiazol-2-yl]-amine], for which, in the experiment with isolated rat aorta [1], the “vasorelaxation effect as compared with glyceryltrinitrate (words)” value is reported as “superior vasorelaxation effect”. For the same compound, the “tolerance induction after pre-treatment” value with isolated rat aorta [3] is given as “absence of tolerance induction”.

For the compound `Cc1nc(-c2ccc(C(F)(F)F)cc2)sc1CCO[N+](=O)[O-]` [Pet-59, 4-Methyl-5-(2-nitrooxy-ethyl)-2-(4-trifluoromethyl-phenyl)-thiazole], the “vasorelaxation effect as compared with glyceryltrinitrate (words)” value in the experiment on isolated rat aorta [1] is reported as “superior vasorelaxation effect”. For the same compound, the “levels of cGMP as compared with GTN” value in experiment [2] is recorded as “increased levels of cGMP”.

`CCNc1nc(C)c(CCO[N+](=O)[O-])s1` [Pet-147, Ethyl-[4-methyl-5-(2-nitrooxy-ethyl)-thiazol-2-yl]-amine]: the “levels of cGMP as compared with GTN” value in experiment [2] is listed as “increased levels of cGMP”.

`Cc1nc(Nc2cccc3ccccc23)sc1CCO[N+](=O)[O-]` [Pet-149, [4-Methyl-5-(2-nitrooxy-ethyl)-thiazol-2-yl]-naphthalen-1-yl-amine]: the “vasorelaxation effect as compared with glyceryltrinitrate (words)” value in the experiment on isolated rat aorta [1] was “superior vasorelaxation effect”. For the same compound, in experiment [2], the “levels of cGMP as compared with GTN” value is on record as “increased levels of cGMP” and the “cGMP Post-infusion” value amounted to 115 ± 14 pmol/g tissue. Besides, the “tolerance induction after pre-treatment” value with isolated rat aorta [3] is “absence of tolerance induction”.

In the case of `Cc1nc(NC(=O)c2cccnc2)sc1CCO[N+](=O)[O-]` [Pet-154, N-[4-methyl-5-(2-nitrooxy-ethyl)-thiazol-2-yl]-nicotinamide], in experiment [2], the “levels of cGMP as compared with GTN” value is “increased levels of cGMP”.

As to `C=CCNc1nc(C)c(CCO[N+](=O)[O-])s1` [Pet-155, allyl-[4-methyl-5-(2-nitrooxy-ethyl)-thiazol-2-yl]-amine], the “vasorelaxation effect as compared with glyceryltrinitrate (words)” value in the experiment with isolated rat aorta [1] is “superior vasorelaxation effect”. Also, the “levels of cGMP as compared with GTN” value in experiment [2] is “increased levels of cGMP”.

Values taken from US7332513B2, “Thiazole-based nitric oxide donors having acyl substituent(s) and uses thereof” (priority 2004, dated 2008).
